Assay results: patent US20170349593A1, “BTK INHIBITORS” (MERCK SHARP & DOHME CORP., priority 2014, published 2017)

How the values were obtained:
[1] = test system: adenosine uptake into HeLa cells; test: [3H]Adenosine uptake assay; format: cell-based; conditions: Homo sapiens; accumulation of [3H]adenosine into HeLa cells; concentration range 10 μM to 0.032 nM; read-out: ADU inhibition IC50
In short: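 HeLa cells (25 000/well), plated overnight, were preincubated 30 minutes at ambient temperature with compound in HBSS + 5% FBS. Ten-point titrations ran from 10 μM to 0.032 nM final. [3H]adenosine was added from a 500 nM solution for 60 minutes, and uptake was measured by scintillation proximity counting; IC50 came from a 4-parameter fit.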

[2] = biological target: T1, BTK enzyme (recombinant full-length BTK, hBTK) (Homo sapiens, UniProt Q06187); test: Btk enzyme activity assay (LANCE TR-FRET); format: biochemical; conditions: 50 pM hBTK, 25 μM ATP, 60 minute compound and enzyme incubation, concentration range 1 μM to 0.017 nM, read-out: BTK binding IC50
T1 construct: recombinant protein from baculovirus-transfected S 19 cells: full-length BTK, 6 HIS-tag cleaved; 6 HIS-tag (cleaved yes); made in house
T1 sequence (Q06187 whole entry): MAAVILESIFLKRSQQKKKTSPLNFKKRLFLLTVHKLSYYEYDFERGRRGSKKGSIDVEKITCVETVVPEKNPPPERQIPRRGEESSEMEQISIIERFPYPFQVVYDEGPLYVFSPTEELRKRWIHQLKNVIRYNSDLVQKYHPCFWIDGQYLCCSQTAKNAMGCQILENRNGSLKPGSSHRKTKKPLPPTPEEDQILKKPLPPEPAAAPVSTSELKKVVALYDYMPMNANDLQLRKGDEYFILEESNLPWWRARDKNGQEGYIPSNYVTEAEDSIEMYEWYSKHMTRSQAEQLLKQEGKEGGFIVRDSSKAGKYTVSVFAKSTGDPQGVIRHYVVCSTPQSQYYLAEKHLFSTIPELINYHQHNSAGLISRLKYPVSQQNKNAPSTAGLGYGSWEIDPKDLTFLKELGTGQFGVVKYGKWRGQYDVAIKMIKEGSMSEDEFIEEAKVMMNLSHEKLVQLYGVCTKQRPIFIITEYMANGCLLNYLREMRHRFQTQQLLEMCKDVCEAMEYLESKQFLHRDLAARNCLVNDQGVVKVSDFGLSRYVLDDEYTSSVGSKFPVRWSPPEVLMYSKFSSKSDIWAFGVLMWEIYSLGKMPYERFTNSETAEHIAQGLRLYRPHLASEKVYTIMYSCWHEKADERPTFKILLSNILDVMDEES

Structure (SMILES)	IC50 [1] [nM]	IC50 [2] [nM]
COc1cc(C(=O)Nc2cc(C(F)(F)F)ccn2)ccc1-c1nc([C@H]2CN(Cc3[nH]cnc3C)[C@@H](C)CO2)n2ccnc(N)c12 [Example 53, 4-(8-amino-3-{(2R,5S)-5-methyl-4-[(4-methyl-1H-imidazol-5-yl)methyl]morpholin-2-yl}imidazo[1,5-a]pyrazin-1-yl)-3-methoxy-N-[4-(trifluoromethyl)pyridin-2-yl]benzamide]	1030	5.8
COc1cc(C(=O)Nc2cc(C(F)(F)F)ccn2)ccc1-c1nc([C@H]2CN(Cc3cnn(C)c3)[C@@H](C)CO2)n2ccnc(N)c12 [Example 54, 4-(8-amino-3-{(2R,5S)-5-methyl-4-[(1-methyl-1H-pyrazol-4-yl)methyl]morpholin-2-yl}imidazo[1,5-a]pyrazin-1-yl)-3-methoxy-N-[4-(trifluoromethyl)pyridin-2-yl]benzamide]	1650	2.28
COc1cc(C(=O)Nc2cc(C(F)(F)F)ccn2)ccc1-c1nc([C@H]2CN(C3COC3)[C@@H](C)CO2)n2ccnc(N)c12 [Example 55, 4-{8-amino-3-[(2R,5S)-5-methyl-4-oxetan-3-ylmorpholin-2-yl]imidazo[1,5-a]pyrazin-1-yl}-3-methoxy-N-[4-(trifluoromethyl)pyridin-2-yl]benzamide]	2060	2.54
C[C@H]1CO[C@@H](c2nc(-c3ccc(C(=O)Nc4ccccn4)cc3)c3c(N)nccn23)CN1C1CCOCC1 [Example 57, 4-{8-amino-3-[(2R,5S)-5-methyl-4-(tetrahydro-2H-pyran-4-yl)morpholin-2-yl]imidazo[1,5-a]pyrazin-1-yl}-N-pyridin-2-ylbenzamide]	1020	26.7
COc1cc(C(=O)Nc2cc(C(F)(F)F)ccn2)ccc1-c1nc([C@H]2CN(C3CCOCC3)[C@@H](C)CO2)n2ccnc(N)c12 [Example 60, 4-{8-amino-3-[(2R,5S)-5-methyl-4-(tetrahydro-2H-pyran-4-yl)morpholin-2-yl]imidazo[1,5-a]pyrazin-1-yl}-3-methoxy-N-[4-(trifluoromethyl)pyridin-2-yl]benzamide]	1620	1.57
C[C@H]1CO[C@@H](c2nc(-c3ccc(C(=O)Nc4cc(C5CC5)ccn4)cc3F)c3c(N)nccn23)CN1C1CCOCC1 [Example 61, 4-{8-amino-3-[(2R,5S)-5-methyl-4-(tetrahydro-2H-pyran-4-yl)morpholin-2-yl]imidazo[1,5-a]pyrazin-1-yl}-N-(4-cyclopropylpyridin-2-yl)-3-fluorobenzamide]	386	0.814
C[C@H]1CO[C@@H](c2nc(-c3ccc(C(=O)Nc4ccccn4)cc3)c3c(N)nccn23)CN1C(=O)C1CC1 [Example 62, 4-{8-amino-3-[(2R,5S)-4-(cyclopropylcarbonyl)-5-methylmorpholin-2-yl]imidazo[1,5-a]pyrazin-1-yl}-N-pyridin-2-ylbenzamide]	256	10.8
Nc1nccn2c([C@H]3CN(C(=O)C4CC4)[C@H](CO)CO3)nc(-c3ccc(C(=O)Nc4cc(C(F)(F)F)ccn4)cc3F)c12 [Example 63, 4-{8-amino-3-[(2R,5R)-4-(cyclopropylcarbonyl)-5-(hydroxymethyl)morpholin-2-yl]imidazo[1,5-a]pyrazin-1-yl}-3-fluoro-N-[4-(trifluoromethyl)pyridin-2-yl]benzamide]	48.5	5.28
Cn1cc(CN2C[C@H](c3nc(-c4ccc(C(=O)Nc5cc(C(F)(F)F)ccn5)cc4F)c4c(N)nccn34)OC[C@H]2CO)cn1 [Example 64, 4-(8-amino-3-{(2R,5R)-5-(hydroxymethyl)-4-[(1-methyl-1H-pyrazol-4-yl)methyl]morpholin-2-yl}imidazo[1,5-a]pyrazin-1-yl)-3-fluoro-N-[4-(trifluoromethyl)pyridin-2-yl]benzamide]	260	4.33
Nc1nccn2c([C@H]3CN(C4CCOCC4)[C@H](CO)CO3)nc(-c3ccc(C(=O)Nc4cc(C(F)(F)F)ccn4)cc3F)c12 [Example 65, 4-{8-amino-3-[(2R,5R)-5-(hydroxymethyl)-4-(tetrahydro-2H-pyran-4-yl)morpholin-2-yl]imidazo[1,5-a]pyrazin-1-yl}-3-fluoro-N-[4-(trifluoromethyl)pyridin-2-yl]benzamide]	136	6.78
Nc1nccn2c([C@H]3CN(C4COC4)[C@H](CO)CO3)nc(-c3ccc(C(=O)Nc4cc(C(F)(F)F)ccn4)cc3F)c12 [Example 66, 4-{8-amino-3-[(2R,5R)-5-(hydroxymethyl)-4-oxetan-3-ylmorpholin-2-yl]imidazo[1,5-a]pyrazin-1-yl}-3-fluoro-N-[4-(trifluoromethyl)pyridin-2-yl]benzamide]	24.6	1.23
Nc1nccn2c([C@H]3CN[C@H](CO)CO3)nc(-c3ccc(C(=O)Nc4cc(C(F)(F)F)ccn4)cc3F)c12 [Example 67, 4-{8-amino-3-[(2R,5R)-5-(hydroxymethyl)morpholin-2-yl]imidazo[1,5-a]pyrazin-1-yl}-3-fluoro-N-[4-(trifluoromethyl)pyridin-2-yl]benzamide]	129	1.97
C[C@H](O)C(=O)N1C[C@H](c2nc(-c3ccc(C(=O)Nc4cc(C(F)(F)F)ccn4)cc3F)c3c(N)nccn23)OC[C@H]1C [Example 68, 4-(8-amino-3-{(2R,5R)-4-[(2S)-2-hydroxypropanoyl]-5-methylmorpholin-2-yl}imidazo[1,5-a]pyrazin-1-yl)-3-fluoro-N-[4-(trifluoromethyl)pyridin-2-yl]benzamide]	76.6	3.02
C[C@@H]1CO[C@@H](c2nc(-c3ccc(C(=O)Nc4cc(C(F)(F)F)ccn4)cc3F)c3c(N)nccn23)CN1C(=O)C1(C)CC1 [Example 69, 4-(8-amino-3-{(2R,5R)-5-methyl-4-[(1-methylcyclopropyl)carbonyl]morpholin-2-yl}imidazo[1,5-a]pyrazin-1-yl)-3-fluoro-N-[4-(trifluoromethyl)pyridin-2-yl]benzamide]	139	10.9
COCC(=O)N1C[C@H](c2nc(-c3ccc(C(=O)Nc4cc(C(F)(F)F)ccn4)cc3F)c3c(N)nccn23)OC[C@H]1C [Example 70, 4-{8-amino-3-[(2R,5R)-4-(methoxyacetyl)-5-methylmorpholin-2-yl]imidazo[1,5-a]pyrazin-1-yl}-3-fluoro-N-[4-(trifluoromethyl)pyridin-2-yl]benzamide]	135	13.8
CC(=O)N1C[C@H](c2nc(-c3ccc(C(=O)Nc4cc(C(F)(F)F)ccn4)cc3F)c3c(N)nccn23)OC[C@H]1C [Example 71, 4-{3-[(2R,5R)-4-acetyl-5-methylmorpholin-2-yl]-8-aminoimidazo[1,5-a]pyrazin-1-yl}-3-fluoro-N-[4-(trifluoromethyl)pyridin-2-yl]benzamide]	110	6.63
C[C@@H]1CO[C@@H](c2nc(-c3ccc(C(=O)Nc4cc(C(F)(F)F)ccn4)cc3F)c3c(N)nccn23)CN1Cc1cnn(C)c1 [Example 72, 4-(8-amino-3-{(2R,5R)-5-methyl-4-[(1-methyl-1H-pyrazol-4-yl)methyl]morpholin-2-yl}imidazo[1,5-a]pyrazin-1-yl)-3-fluoro-N-[4-(trifluoromethyl)pyridin-2-yl]benzamide]	138	1.45
